# Tests used:
# [1] = target: T1, Tyrosine-protein kinase ITK/TSK (Homo sapiens, UniProt Q08881); assay: Inhibition of Itk
# T1 sequence (Q08881 whole entry): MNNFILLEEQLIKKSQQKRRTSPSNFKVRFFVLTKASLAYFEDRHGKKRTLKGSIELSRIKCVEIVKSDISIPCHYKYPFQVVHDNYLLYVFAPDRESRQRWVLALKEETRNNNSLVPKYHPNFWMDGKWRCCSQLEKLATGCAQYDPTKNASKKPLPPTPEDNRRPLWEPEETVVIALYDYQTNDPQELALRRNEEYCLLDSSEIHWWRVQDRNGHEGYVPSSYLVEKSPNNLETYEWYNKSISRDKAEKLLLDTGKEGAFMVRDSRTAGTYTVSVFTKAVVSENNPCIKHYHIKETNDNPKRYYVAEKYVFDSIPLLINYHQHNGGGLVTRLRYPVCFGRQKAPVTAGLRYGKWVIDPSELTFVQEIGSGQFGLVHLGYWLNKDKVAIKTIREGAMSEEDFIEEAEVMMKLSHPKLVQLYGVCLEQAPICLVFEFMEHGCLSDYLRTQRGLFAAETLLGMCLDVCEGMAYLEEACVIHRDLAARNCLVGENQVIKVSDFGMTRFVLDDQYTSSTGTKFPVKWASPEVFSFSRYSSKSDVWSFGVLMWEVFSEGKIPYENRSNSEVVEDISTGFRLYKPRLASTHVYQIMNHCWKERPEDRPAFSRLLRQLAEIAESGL
# [2] = target: T2, Tyrosine-protein kinase JAK3 (Homo sapiens, UniProt P52333); assay: Inhibition of JAK3
# T2 sequence (P52333 whole entry): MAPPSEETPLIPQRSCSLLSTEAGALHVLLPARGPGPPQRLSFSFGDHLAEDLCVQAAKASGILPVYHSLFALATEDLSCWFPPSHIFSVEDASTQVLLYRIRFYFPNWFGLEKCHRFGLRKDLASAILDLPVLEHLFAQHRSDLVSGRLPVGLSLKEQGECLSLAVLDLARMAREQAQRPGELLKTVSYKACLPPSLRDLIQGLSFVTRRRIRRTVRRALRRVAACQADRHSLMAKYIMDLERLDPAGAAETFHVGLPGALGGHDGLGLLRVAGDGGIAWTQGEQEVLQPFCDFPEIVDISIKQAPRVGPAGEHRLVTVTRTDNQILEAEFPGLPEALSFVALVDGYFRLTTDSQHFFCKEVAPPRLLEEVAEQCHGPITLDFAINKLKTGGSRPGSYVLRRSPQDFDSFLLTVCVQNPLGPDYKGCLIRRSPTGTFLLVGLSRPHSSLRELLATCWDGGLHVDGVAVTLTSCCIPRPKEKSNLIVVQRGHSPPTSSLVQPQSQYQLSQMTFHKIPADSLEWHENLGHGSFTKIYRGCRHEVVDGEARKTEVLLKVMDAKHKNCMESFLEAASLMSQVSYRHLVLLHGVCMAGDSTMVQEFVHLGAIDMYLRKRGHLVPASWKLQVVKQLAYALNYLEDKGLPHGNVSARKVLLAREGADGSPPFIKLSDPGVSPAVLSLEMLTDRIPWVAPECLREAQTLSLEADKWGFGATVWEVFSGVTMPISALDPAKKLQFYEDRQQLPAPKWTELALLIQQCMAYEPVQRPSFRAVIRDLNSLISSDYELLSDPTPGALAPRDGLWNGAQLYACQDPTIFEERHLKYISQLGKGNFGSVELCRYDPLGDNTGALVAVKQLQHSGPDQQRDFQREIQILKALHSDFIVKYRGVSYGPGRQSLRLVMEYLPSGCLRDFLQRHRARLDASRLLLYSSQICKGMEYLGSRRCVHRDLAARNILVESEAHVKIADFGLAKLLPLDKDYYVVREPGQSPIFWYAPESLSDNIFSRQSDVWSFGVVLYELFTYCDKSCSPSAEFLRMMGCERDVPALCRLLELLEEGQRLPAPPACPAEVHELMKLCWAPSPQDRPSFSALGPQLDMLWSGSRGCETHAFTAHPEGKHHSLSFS
# [3] = target: Tyrosine-protein kinase BTK (Homo sapiens, UniProt Q06187); assay: Inhibition of Btk
# Chain of Tyrosine-protein kinase BTK (Q06187 whole entry): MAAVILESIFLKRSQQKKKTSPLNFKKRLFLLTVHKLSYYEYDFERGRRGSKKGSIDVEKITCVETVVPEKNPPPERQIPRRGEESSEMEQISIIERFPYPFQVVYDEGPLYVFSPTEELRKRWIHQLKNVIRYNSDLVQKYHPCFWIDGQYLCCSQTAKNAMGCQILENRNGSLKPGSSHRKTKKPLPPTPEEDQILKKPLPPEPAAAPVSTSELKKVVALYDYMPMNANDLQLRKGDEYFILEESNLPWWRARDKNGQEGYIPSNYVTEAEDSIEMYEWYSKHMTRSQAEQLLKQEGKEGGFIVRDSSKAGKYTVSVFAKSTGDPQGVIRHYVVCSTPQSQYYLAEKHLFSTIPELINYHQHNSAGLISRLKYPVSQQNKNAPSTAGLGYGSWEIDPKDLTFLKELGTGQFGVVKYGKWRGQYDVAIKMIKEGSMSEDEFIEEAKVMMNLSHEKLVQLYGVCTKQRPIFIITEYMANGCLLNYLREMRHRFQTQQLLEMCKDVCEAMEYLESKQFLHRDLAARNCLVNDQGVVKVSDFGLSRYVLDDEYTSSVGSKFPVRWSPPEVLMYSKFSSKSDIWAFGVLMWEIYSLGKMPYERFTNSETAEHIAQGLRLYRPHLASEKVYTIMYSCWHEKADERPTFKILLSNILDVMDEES
# [4] = target: Tyrosine-protein kinase Blk (Homo sapiens, UniProt P51451); assay: Inhibition of Blk
# Chain of Tyrosine-protein kinase Blk (P51451 whole entry): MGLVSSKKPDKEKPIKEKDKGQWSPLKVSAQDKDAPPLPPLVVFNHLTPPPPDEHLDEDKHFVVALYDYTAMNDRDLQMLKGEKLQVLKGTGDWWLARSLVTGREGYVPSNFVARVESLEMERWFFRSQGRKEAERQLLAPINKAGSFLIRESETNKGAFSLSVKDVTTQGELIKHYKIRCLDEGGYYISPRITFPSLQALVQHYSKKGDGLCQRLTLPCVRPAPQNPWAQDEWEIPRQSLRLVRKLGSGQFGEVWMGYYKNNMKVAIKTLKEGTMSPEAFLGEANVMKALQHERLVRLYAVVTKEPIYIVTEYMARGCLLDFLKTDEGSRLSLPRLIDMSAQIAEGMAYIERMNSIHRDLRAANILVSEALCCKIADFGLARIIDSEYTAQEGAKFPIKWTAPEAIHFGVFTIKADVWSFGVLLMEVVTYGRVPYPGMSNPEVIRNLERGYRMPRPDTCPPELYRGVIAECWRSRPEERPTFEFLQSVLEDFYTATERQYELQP
# [5] = target: Receptor tyrosine-protein kinase erbB-4 (Homo sapiens, UniProt Q15303); assay: Inhibition of HER4
# Chain of Receptor tyrosine-protein kinase erbB-4 (Q15303 whole entry): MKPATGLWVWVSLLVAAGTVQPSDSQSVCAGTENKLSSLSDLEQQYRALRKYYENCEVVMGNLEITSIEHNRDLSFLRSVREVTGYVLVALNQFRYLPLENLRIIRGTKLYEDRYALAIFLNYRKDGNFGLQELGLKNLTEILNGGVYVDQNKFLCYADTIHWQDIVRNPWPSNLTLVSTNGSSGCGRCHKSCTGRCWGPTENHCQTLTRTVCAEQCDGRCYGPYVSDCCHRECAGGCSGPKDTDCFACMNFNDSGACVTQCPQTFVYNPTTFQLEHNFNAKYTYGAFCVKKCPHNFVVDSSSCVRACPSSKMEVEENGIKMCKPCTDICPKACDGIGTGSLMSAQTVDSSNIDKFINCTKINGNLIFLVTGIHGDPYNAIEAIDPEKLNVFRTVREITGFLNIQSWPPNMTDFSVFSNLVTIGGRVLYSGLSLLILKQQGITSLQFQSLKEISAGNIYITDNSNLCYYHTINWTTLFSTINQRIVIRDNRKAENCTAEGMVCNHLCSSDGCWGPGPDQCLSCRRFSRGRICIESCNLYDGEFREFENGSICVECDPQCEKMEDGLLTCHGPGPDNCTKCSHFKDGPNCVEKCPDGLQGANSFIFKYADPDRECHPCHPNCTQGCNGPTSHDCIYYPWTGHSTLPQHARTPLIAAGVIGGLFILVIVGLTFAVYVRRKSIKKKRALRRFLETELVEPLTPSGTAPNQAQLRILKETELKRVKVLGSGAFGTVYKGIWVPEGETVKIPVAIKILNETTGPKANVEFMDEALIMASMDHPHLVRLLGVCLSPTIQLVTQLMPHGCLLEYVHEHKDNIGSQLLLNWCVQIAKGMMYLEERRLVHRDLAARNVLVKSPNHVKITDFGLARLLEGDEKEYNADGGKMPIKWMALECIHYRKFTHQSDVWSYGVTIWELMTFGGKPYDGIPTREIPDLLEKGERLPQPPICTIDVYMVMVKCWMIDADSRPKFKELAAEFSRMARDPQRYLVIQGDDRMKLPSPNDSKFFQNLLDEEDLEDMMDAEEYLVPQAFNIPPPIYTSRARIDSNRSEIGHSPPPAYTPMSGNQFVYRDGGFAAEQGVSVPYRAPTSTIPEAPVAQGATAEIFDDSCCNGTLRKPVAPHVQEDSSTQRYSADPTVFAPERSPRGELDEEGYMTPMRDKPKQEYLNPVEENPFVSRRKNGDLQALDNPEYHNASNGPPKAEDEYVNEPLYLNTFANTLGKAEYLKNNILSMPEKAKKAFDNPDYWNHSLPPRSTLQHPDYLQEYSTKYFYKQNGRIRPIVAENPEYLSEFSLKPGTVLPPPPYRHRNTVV
# [6] = target: T3, Serine/threonine-protein kinase STK11 (Homo sapiens, UniProt Q15831); assay: Inhibition of Lkb1
# T3 sequence (Q15831 whole entry): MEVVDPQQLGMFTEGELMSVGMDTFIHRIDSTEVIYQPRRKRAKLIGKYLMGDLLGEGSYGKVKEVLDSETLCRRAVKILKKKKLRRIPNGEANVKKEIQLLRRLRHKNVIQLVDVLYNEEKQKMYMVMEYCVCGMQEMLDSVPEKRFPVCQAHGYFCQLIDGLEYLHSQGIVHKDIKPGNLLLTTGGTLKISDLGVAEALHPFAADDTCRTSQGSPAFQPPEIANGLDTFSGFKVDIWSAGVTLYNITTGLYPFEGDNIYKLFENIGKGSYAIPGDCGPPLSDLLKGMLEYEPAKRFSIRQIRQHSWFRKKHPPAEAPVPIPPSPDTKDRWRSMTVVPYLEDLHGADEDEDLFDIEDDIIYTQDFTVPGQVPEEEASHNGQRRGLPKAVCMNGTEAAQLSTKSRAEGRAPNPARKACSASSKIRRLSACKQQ
# [7] = target: Receptor tyrosine-protein kinase erbB-2 (Homo sapiens, UniProt P04626); assay: Inhibition of HER2
# Chain of Receptor tyrosine-protein kinase erbB-2 (P04626 whole entry): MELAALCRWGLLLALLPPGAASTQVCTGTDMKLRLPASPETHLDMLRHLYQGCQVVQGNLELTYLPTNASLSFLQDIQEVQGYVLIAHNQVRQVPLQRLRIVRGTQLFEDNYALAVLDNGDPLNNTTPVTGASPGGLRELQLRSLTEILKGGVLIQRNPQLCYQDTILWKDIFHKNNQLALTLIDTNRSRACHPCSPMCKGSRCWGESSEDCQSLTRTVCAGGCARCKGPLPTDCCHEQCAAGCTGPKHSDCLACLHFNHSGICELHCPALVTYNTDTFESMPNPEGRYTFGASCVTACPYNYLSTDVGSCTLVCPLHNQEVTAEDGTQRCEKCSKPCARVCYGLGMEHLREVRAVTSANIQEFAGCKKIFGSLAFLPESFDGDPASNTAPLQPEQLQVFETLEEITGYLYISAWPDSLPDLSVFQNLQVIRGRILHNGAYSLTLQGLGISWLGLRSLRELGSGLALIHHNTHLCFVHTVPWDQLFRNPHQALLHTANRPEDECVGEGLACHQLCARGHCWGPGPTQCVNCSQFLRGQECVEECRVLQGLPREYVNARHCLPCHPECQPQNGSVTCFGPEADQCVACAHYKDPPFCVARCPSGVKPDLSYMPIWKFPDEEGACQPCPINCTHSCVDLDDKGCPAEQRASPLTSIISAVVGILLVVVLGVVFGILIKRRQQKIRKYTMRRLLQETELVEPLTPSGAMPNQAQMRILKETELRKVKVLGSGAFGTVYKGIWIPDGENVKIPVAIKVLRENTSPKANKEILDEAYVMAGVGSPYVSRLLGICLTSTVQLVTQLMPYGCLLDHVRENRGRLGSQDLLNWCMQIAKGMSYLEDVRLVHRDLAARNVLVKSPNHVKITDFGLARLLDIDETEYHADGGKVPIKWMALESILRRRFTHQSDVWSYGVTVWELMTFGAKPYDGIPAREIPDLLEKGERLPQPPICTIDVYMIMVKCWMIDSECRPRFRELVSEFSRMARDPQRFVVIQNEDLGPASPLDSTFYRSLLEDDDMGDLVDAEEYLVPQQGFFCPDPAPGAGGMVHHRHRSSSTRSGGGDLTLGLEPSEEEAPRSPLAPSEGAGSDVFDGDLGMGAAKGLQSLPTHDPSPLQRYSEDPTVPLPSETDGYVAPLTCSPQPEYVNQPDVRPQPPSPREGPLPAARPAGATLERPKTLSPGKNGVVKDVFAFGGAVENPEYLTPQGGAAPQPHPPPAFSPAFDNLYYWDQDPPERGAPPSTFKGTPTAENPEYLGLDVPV
SMILES,IC50 [1] [µM],IC50 [2] [µM],IC50 [3] [µM],IC50 [4] [µM],IC50 [5] [µM],IC50 [6] [µM],IC50 [7] [µM]
C=CC(=O)Nc1ccc2ncnc(Nc3cccc(Br)c3)c2c1,> 30,3.14,5.83,5.47,0.012,> 10,0.024
C=CC(=O)Nc1cc2c(Nc3ccc(F)c(Cl)c3)ncnc2cc1OCCCN1CCOCC1 [CANERTINIB],–,–,0.185,–,–,–,–

# — ChEMBL document CHEMBL1154498, “Clinical stage EGFR inhibitors irreversibly alkylate Bmx kinase” (Bioorg Med Chem Lett, 2008)
